Measurements: PubChem BioAssay (NCI)
Several values for one entry are separate records, joined by “and”; a condition that tells them apart may be missing. Equal entries are not always repeated.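 Dose response: 5 concentrations. Exposure: 48 h. Format: 96-well plates. Endpoint: linear interpolation; highest concentration if not reached. GI50 marks 50% less growth. Definition used: TGI = concentration required for complete inhibition of growth.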

Key:
Experiment in all cases: NCI anticancer screen, dose series, 48 h
SK-MEL-5 melanoma = tested on: SK-MEL-5 melanoma
HCC-2998 colon = tested on: HCC-2998 colon
NCI-H522 lung = tested on: NCI-H522 lung
HT29 colon = tested on: HT29 colon
UACC-257 melanoma = tested on: UACC-257 melanoma
SR leukemia = tested on: SR leukemia
HL-60(TB) leukemia = tested on: HL-60(TB) leukemia
SN12C renal = tested on: SN12C renal

| SMILES | GI50 (SK-MEL-5 melanoma) [nM] | TGI (SK-MEL-5 melanoma) [µM] | GI50 (HCC-2998 colon) | TGI (HCC-2998 colon) | GI50 (NCI-H522 lung) | GI50 (HT29 colon) | TGI (HT29 colon) | GI50 (UACC-257 melanoma) | TGI (UACC-257 melanoma) | GI50 (SR leukemia) | TGI (SR leukemia) | GI50 (HL-60(TB) leukemia) | TGI (HL-60(TB) leukemia) | GI50 (SN12C renal) | TGI (SN12C renal) | TGI (NCI-H522 lung) |
| --- | --- | --- | --- | --- | --- | --- | --- | --- | --- | --- | --- | --- | --- | --- | --- | --- |
| COC(=O)[C@@H](C)C[C@H](Cc1ccccc1)NC(=O)c1nc([C@@H](C[C@H](C(C)C)N(C)C(=O)[C@@H](NC(=O)[C@H]2C[C@H](O)CCN2C)C(C)C)OC(C)=O)sc1C(C)C | 3.69 | 0.185 | 3.53 nM | 4.52 µM | 1.86 nM | 3.77 nM | > 3.99 µM | 5.89 µM | > 11.1 µM | 1.26 nM | > 11.1 µM | 1.43 nM | 0.0074 µM | 6.71 nM | 3.3 µM | – |
| N#CCCNc1nonc1-c1nc2ccccc2n1CC(=O)c1ccc(N)cc1 | 27.1 | 0.123 | 33.8 nM | > 100 µM | < 10 nM | 22.6 nM | 0.0701 µM | – | > 100 µM | < 13.5 nM | > 100 µM | < 16.4 nM | – | 44.7 nM | > 100 µM | < 0.01 µM |
| Cn1cc(-c2ccc3nc(-c4ccc(CC(=O)Nc5cc(C(C)(C)C)no5)cc4)cnc3c2)cn1 | – | > 3 | > 1690 nM | > 3 µM | 49.8 nM | 85.9 nM | > 3 µM | 0.0784 µM | > 3 µM | < 44.5 nM | > 3 µM | 735 nM | > 3 µM | 26.8 nM | > 3 µM | > 3 µM |
| CN(C)CCNC(=O)c1cc2c3cc(Cl)ccc3[nH]c2c2ncccc12 | 1340 | 2.69 | – | – | 2260 nM | 2330 nM | 10.3 µM | 3.92 µM | 14.9 µM | 1680 nM | 4.1 µM | 1970 nM | 4.02 µM | 2900 nM | 13.4 µM | 7.11 µM |
| NS(=O)(=O)c1ccc(N(/C=C/C(=O)C(F)(F)F)CC(=O)c2ccc(F)cc2)cc1 | – | – | 17700 nM | 33.8 µM | 26100 nM | 35200 nM | > 100 µM | 22 µM | 72.8 µM | – | – | – | – | 19400 nM | 45.3 µM | 51.5 µM |
| O=C([CH-]C(=O)c1ccccc1)c1ccccc1.O=C([CH-]C(=O)c1ccccc1)c1ccccc1.O=C([CH-]C(=O)c1ccccc1)c1ccccc1.[Ga+3] | 80200 | > 100 | – | – | 19300 nM | 88800 nM | > 100 µM | 93.3 µM | > 100 µM | 9530 nM | > 100 µM | 20500 nM | > 100 µM | 43800 nM | > 100 µM | 68.6 µM |
| CCCCn1c(=O)[nH]c(N)c([C@@H]2c3c([nH]c(=O)n(CCCC)c3=O)Oc3ccc4ccccc4c32)c1=O | 3060 | 10.7 | 1670 nM | 3.47 µM | 2570 nM | 2460 nM | 4.73 µM | 2.41 µM | 5.78 µM | 458 nM | 15.8 µM | 2470 nM | 6.75 µM | 2510 nM | 6.94 µM | 6.36 µM |
| Cc1ccc(NC(=O)c2ccc(CN3CCN(C)CC3)cc2)cc1Nc1nc(-c2cccnc2)cs1 | 2460 | 9.32 | 11800 nM and > 10000 nM | 26 µM and > 10 µM | 10500 nM and 3550 nM | 3500 nM and 3230 nM | 13.7 µM and > 10 µM | 7.9 µM and 7.34 µM | 20.2 µM and > 10 µM | 2720 nM and 1910 nM | 18.6 µM and 4.67 µM | 2250 nM and 400 nM | 6.96 µM and 5.47 µM | 13900 nM and > 10000 nM | 36 µM and > 10 µM | 23.4 µM and > 10 µM |
| Cc1c(Cl)cccc1C(=O)Nc1nc2c(s1)CN(C(=O)Nc1cccc(C(F)(F)F)c1)CC2 | 182 | 3.75 | 647 nM | 8.52 µM | 109 nM | 173 nM | > 23.3 µM | 2.21 µM | > 50 µM | 78.9 nM | > 50 µM | 149 nM | – | 334 nM | > 50 µM | – |
| Cc1cc(I)cc(CNCCN(C)C)c1O | 27900 | > 80.8 | 35100 nM | > 100 µM | > 86300 nM | 35200 nM | > 100 µM | > 62.5 µM | > 100 µM | – | 0.383 µM | 57800 nM | > 100 µM | > 85600 nM | > 100 µM | > 100 µM |
| C=CCc1cccc(C=O)c1O | 38500 | > 100 | > 100000 nM | > 100 µM | > 100000 nM | 67900 nM | > 100 µM | > 100 µM | > 100 µM | 22000 nM | > 100 µM | 10600 nM | 41 µM | 20800 nM | > 100 µM | > 100 µM |
